Source: the supplement of paper PMC10307832

Key:
Test in all cases: relative viability (nuclei count vs DMSO), 5 days (fraction); higher = more cells survive
IDH-C35 + Trametinib = compound: Cc1ccccc1C(C(=O)NC1CCCCC1)N(C(=O)Cn1ccnc1C)c1cccc(F)c1 [IDH-C35] + CC(=O)Nc1cccc(-n2c(=O)n(C3CC3)c(=O)c3c(Nc4ccc(I)cc4F)n(C)c(=O)c(C)c32)c1 [Trametinib] (partner 0.02 µM)
Procedure, shortened: (§1)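 Nuclei were stained with Hoechst during a one-step fixation (final 0.05% Triton X-100, 1% formaldehyde, 1 ug/ml Hoechst) carried out 5 days after dosing, then counted on 4× images. The cells, lung cancer lines in 1536-well plates, had been dosed by pin tool the day after seeding with one drug alone or a fixed anchor-drug dose plus five library-drug doses (not always all listed) in √10 steps. Relative viability is the nuclei count in treated wells divided by that in vehicle wells, and each value is the median of duplicate plates.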

IDH-C35 + Pictilisib = compound: Cc1ccccc1C(C(=O)NC1CCCCC1)N(C(=O)Cn1ccnc1C)c1cccc(F)c1 [IDH-C35] + CS(=O)(=O)N1CCN(Cc2cc3nc(-c4cccc5[nH]ncc45)nc(N4CCOCC4)c3s2)CC1 [Pictilisib] (partner 1 µM)
Procedure, shortened: as §1

IDH-C35 + Foretinib = compound: Cc1ccccc1C(C(=O)NC1CCCCC1)N(C(=O)Cn1ccnc1C)c1cccc(F)c1 [IDH-C35] + COc1cc2c(Oc3ccc(NC(=O)C4(C(=O)Nc5ccc(F)cc5)CC4)cc3F)ccnc2cc1OCCCN1CCOCC1 [Foretinib] (partner 0.25 µM)
Procedure, shortened: as §1

[1] = compound: CC1=C(C(=NN1)C)CC2=C(C3=C(S2)N(C(=O)N(C3=O)C)CC(C)C)C(=O)N4C[C@@H](CO4)O + Cc1nc(Nc2ncc(C(=O)Nc3c(C)cccc3Cl)s2)cc(N2CCN(CCO)CC2)n1 [Dasatinib] (partner 0.075 µM)
Procedure, shortened: as §1

Cell Line	relative viability (IDH-C35 + Trametinib; first compound 0.08 µM)	relative viability (IDH-C35 + Trametinib; first compound 0.253 µM)	relative viability (IDH-C35 + Trametinib; first compound 0.8 µM)	relative viability (IDH-C35 + Trametinib; first compound 2.53 µM)	relative viability (IDH-C35 + Trametinib; first compound 8 µM)	relative viability (IDH-C35 + Pictilisib; first compound 0.08 µM)	relative viability (IDH-C35 + Pictilisib; first compound 0.253 µM)	relative viability (IDH-C35 + Pictilisib; first compound 0.8 µM)	relative viability (IDH-C35 + Pictilisib; first compound 2.53 µM)	relative viability (IDH-C35 + Pictilisib; first compound 8 µM)	relative viability (IDH-C35 + Foretinib; first compound 0.08 µM)	relative viability (IDH-C35 + Foretinib; first compound 0.253 µM)	relative viability (IDH-C35 + Foretinib; first compound 0.8 µM)	relative viability (IDH-C35 + Foretinib; first compound 2.53 µM)	relative viability (IDH-C35 + Foretinib; first compound 8 µM)	relative viability ([1]; first compound 0.0025 µM)	relative viability ([1]; first compound 0.007906 µM)	relative viability ([1]; first compound 0.025 µM)	relative viability ([1]; first compound 0.07906 µM)	relative viability ([1]; first compound 0.25 µM)
NCI-H322M	0.451	0.485	0.55	0.488	0.507	0.459	0.488	0.471	0.496	0.526	0.93	0.886	0.945	0.916	0.983	0.257	0.254	0.271	0.201	0.245
NCI-H2228	0.456	0.559	0.458	0.836	0.546	0.328	0.296	0.421	0.486	0.457	0.939	0.814	0.973	0.853	0.667	0.507	0.644	0.453	0.521	0.602
NCI-H647	0.488	0.378	0.444	0.473	0.47	0.445	0.411	0.339	–	0.417	1.36	1.13	1.28	1.17	1.02	0.408	0.241	0.194	0.112	0.15
SK-MES-1	0.513	0.6	0.581	0.567	0.45	0.335	0.414	0.358	0.343	0.295	0.983	0.955	0.897	0.971	0.756	0.389	0.367	0.371	0.337	0.314
NCI-H2170	0.855	0.864	0.882	0.85	0.93	0.33	0.378	0.332	0.342	0.336	0.98	0.97	1.1	0.937	0.951	0.56	0.592	0.589	0.412	0.552
NCI-H2085	0.634	0.493	0.571	0.729	0.457	0.489	0.523	0.451	0.49	0.442	0.895	0.907	0.902	1	0.897	0.254	0.264	0.26	0.209	0.242
SW 1573	0.491	0.793	0.531	0.571	0.518	0.468	0.502	0.439	0.59	0.476	1.18	0.873	0.915	0.933	0.928	0.451	0.681	0.402	0.501	0.597
NCI-H727	0.376	0.357	0.34	0.393	0.372	0.528	0.522	0.54	0.441	0.43	0.87	0.693	1.07	0.832	0.764	0.293	0.416	0.501	0.292	0.396
